The values that follow are results of earlier work, collected in US20250381239A1, “METHOD FOR IMPROVING SLEEP QUALITY OR INCREASING SLEEP DURATION AND METHOD FOR RELIEVING PSYCHOLOGICAL STRESS” (TOYO SHINYAKU CO., LTD., priority 2024, published 2025).

Structures are written as SMILES.

Series [1] relates to mice. To be noted: mice subjected only to psychological stress.
Series [2] has as its system mice. To be noted: water immersion restraint test.

Regarding `NC(N)=Nc1nc(CSCCC(N)=NS(N)(=O)=O)cs1` [famotidine], in the series on mice [1], the “Effect on psychological stress ulcers” value is recorded as “no effect”. The “Effect on physical stress ulcers” value in the series with mice [2] is “effective”.

As for `CCN1CCCC1CNC(=O)c1cc(S(N)(=O)=O)ccc1OC` (stereo not shown) [sulpiride], the “Effect on psychological stress ulcers” value in the series on mice [1] is recorded as “effective”. The “Effect on physical stress ulcers” value with mice [2] is “no effect”.
